Series [1] concerns LN229 tumor xenograft mice. As to the kind of experiment: Cytokine profiles in serum of treated LN229 xenograft nude mice. The note with it: sera from LN229 tumor xenograft mice. The format is in vivo, mouse.
The subject of series [2] is LN229 tumors. As to the kind of experiment: Metabolite analysis (Metabolon) of LN229 tumor samples. The format is in vivo, mouse. The note with it: EM+M4N+TMZ1/2 versus EM+TMZ1/2 schedule.
For series [3] the following is noted: oral administration, short-term and long-term feeding; cited from earlier work.
The conditions of series [4]: daily (1 mg/day) IV injection, nude mice carrying human tumor xenografts; cited from earlier work. On the technique in general: Xenograft models place foreign cells or tissue in a host animal.
The subject of series [5] is LN229 tumors. As to the kind of experiment: Immune cells infiltration in LN229 tumors from xenograft mice. The format is in vivo, mouse.
The next series concerns Kras G12D mice. The note with it: mouse, in vivo, po. From the text:
FIG. 13 depicts MRI of lung tumors in mice. The axial images were taken by 9.4 T MRI; RARE T2-weighted; slice thickness=1 mm; total slice number=24. The scan started from neck to bottom of ribs. The tumor size ≥1 mm is detectable by this scan. H, heart; S, spine; Arrow: lung tumor;
In the present Kras-driven lung cancer model, since mice carry homozygous mutant Kras are embryonic lethal, all Kras mice bred are heterozygous Kras^+/G12D that one genetic engineering allele can synthesize the Kras G12D protein by “hit-and-run” recombination and cause cancers spontaneously (FIG. 11A). According to previous reports and experience, lung lesions could be found in mice as young as one-week old. In this group of mice, 100% of the mice will develop lung cancer between 15 to 40 weeks of age (FIG. 11B), and about 30% may also develop thymic lymphoma and papilloma (Nature; 410:6832; 1111-6, 2001). […]
In this study, 10-week old, female, Kras G12D mice were chosen; which lung cancer had not been well developed in at this age. […] After consecutive treatments for 120 days, treatment for mice that reached 28 weeks old was stopped in both groups and the mice were monitored and weighed continuously. […]

A further series deals with malignant gliomas. Conditions: cited from earlier work.

The source of these data is patent US12171729B2, “Formulations of terameprocol and temozolomide and their use in stimulation of humoral immunity in tumors” (The Johns Hopkins University, priority 2019, dated 2024).

The structures appear in SMILES notation.

Turning to `COc1ccc(C[C@@H](C)[C@@H](C)Cc2ccc(OC)c(OC)c2)cc1OC` [M4N, Tetra-O-methyl nordihydroguaiaretic acid], the “level of IL-21 in sera (in words)” value in series [1] was “significantly increased”. Further, the “effect on metabolic pathways of the tumor” value in the series with LN229 tumors [2] is “suppressed most of the metabolic pathways”. Besides, in series [3], the “M4N concentration in mouse organs” value was ≤ 906 μg/g of tissue. For the same molecule, the “M4N levels accumulated in blood and tumors” value in series [4] is “above 1 mM”. For the same molecule, the “tumor infiltrating immune cells in the tumor microenvironment” value in the series with LN229 tumors [5] was “Tumor infiltrating macrophages and B cells”. The “weight loss during treatment” value in the series with Kras G12D mice is given as “no significant weight loss”.
`Cn1nnc2c(C(N)=O)ncn2c1=O` [TMZ, 3,4-dihydro-3-methyl-4-oxoimidazo[5,1-d]-1,2,3,5-tetrazine-8-carboxamide]: in the series on malignant gliomas (radiotherapy and chemotherapy, radiotherapy alone 10.4%), the “survival rate at 2 years” value is recorded as 26.5%. The dose-limiting toxicity result with malignant gliomas (systemic exposure, specifically thrombocytopenia and neutropenia) is “hematological toxicity”.
